Where only a bound is given, the exact number is not on record here.

This assay has as its target T1, human ANO6 (variant 5) (Homo sapiens, UniProt Q4KMQ2).
T1 construct: expressed in transfected cells; host or cells: Fischer rat thyroid (FRT) cells
T1 sequence (Q4KMQ2 1-931 isoform Q4KMQ2-2): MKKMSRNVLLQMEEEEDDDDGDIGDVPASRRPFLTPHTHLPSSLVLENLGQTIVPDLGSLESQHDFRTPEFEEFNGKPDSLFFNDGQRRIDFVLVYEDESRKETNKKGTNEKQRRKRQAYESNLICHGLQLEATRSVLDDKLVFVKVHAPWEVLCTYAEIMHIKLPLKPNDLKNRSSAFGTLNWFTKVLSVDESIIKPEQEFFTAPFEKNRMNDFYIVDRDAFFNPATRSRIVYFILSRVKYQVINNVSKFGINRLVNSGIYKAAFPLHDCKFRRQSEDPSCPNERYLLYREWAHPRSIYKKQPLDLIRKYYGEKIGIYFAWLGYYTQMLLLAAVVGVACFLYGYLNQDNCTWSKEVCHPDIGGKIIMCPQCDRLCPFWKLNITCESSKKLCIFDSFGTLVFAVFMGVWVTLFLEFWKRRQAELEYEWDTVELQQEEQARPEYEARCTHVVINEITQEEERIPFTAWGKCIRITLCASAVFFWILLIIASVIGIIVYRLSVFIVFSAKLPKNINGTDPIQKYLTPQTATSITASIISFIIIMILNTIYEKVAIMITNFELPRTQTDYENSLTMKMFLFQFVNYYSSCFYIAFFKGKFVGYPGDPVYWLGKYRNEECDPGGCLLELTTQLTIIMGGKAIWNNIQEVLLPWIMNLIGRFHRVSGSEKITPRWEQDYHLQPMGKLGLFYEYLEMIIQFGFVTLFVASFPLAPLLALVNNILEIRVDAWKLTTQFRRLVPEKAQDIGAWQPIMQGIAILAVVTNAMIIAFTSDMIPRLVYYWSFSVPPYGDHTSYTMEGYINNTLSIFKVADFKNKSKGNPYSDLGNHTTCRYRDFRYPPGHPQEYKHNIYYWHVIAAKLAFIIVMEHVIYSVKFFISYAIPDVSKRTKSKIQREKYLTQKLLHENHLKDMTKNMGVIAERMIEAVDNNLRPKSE
Briefly: Lact C2 assay (measuring phosphatidylserine externalization scramblase function). Conditions: FRT cells expressing human ANO6 (variant 5), ionomycin 10 µM, Lact-C2-GFP fluorescence, average of three tests; for inhibition at 0.05 µM / inhibition at 0.1 µM / inhibition at 1 µM: FRT; for inhibition at 0.05 µM / % Inhibition 50 nM: compound 50 nM; for inhibition at 0.05 µM: read-out: % Inhibition 50 nM; for inhibition at 1 µM: compound 1 µM, read-out: % Inhibition 1 µM. It is filed as cell-based. As for the experimental part: Ionomycin (Alomonelab, cat. # I-700), DAPI (Sigma- Aldrich, cat. # D8417), paraformaldehyde (Biosesang, cat. #P2031), Lionheart FX automated fluorescence microscope (BioTek), Gen5™ software program (BioTek), and Image J analysis software program.
After the incubation, the cells were treated with compounds dissolved in DMSO to 1% v/v in each well at each concentration (50 nM, 100 nM, and 1 µM) and reacted for 10 minutes. Thereafter, each well was treated with ionomycin to a final concentration of 10 µM, allowed to react for 10 minutes, and then washed with 200 µL PBS. After washing, each well was treated with 50 µL of Lactadherin-C2 (Lact-C2)-GFP mixed in DMEM medium to a final concentration of 500 nM to stain phosphatidylserine, and cultured at 37°C for 10 minutes. After completion of the reaction, the cells were washed with 200 µL PBS, and fixed with 4% paraformaldehyde for 5 minutes at room temperature. For morphological analysis, DAPI solution was added, and the cells were incubated for 15 minutes, followed by washing with PBS. The fluorescence intensity of Lact-C2-GFP bound to phosphatidylserine on the cell surface was measured using an automated fluorescence microscope. For quantitative analysis of the fluorescence intensity of Lact-C2-GFP, BioTek Gen5™ software and Image J analysis software programs were used.
Phosphatidylserine externalization inhibitory activity (%) by the compound was calculated through the following analysis method. Specifically, the background fluorescence value was subtracted from the measured Lact-C2-GFP fluorescence value, and the fluorescence value of the ionomycin non-treatment group and the ionomycin-treatment group in the same row where each test group was located in a 96-well microplate were calculated. In order to calculate the inhibitory activity (%) by the compound, the relative inhibitory activity was calculated by setting the compound and ionomycin non-treatment group to 100% inhibitory activity and the ionomycin alone treatment group to 0% inhibitory activity.

As for `FC(F)(F)c1ccc2nc(-c3cccc(Nc4ccc(-c5cccnn5)cc4)c3)[nH]c2c1` [Example 23, N-(4-(pyridazin-3-yl)phenyl)-3-(6-(trifluoromethyl)-1H-benzo[d]imidazol-2-yl)aniline], the inhibition at 0.05 µM was more than 60% and the inhibition at 1 µM is more than 60%. This compound registered an inhibition at 0.1 µM (compound 100 nM) of more than 60%.
For the compound `FC(F)(F)c1ccc2nc(-c3cccc(Nc4ccc(-c5ccncn5)cc4)c3)[nH]c2c1` [Example 24, N-(4-(pyrimidin-4-yl)phenyl)-3-(6-(trifluoromethyl)-1H-benzo[d]imidazol-2-yl)aniline], the inhibition at 0.05 µM was more than 60% and the inhibition at 1 µM was more than 60%. In addition, where the note is “compound 100 nM”, the inhibition at 0.1 µM was more than 60%.
As to `Fc1ccc2nc(-c3cccc(Nc4ccc(-c5cccnn5)cc4)c3)[nH]c2c1` [Example 25, 3-(6-fluoro-1H-benzo[d]imidazol-2-yl)-N-(4-(pyridazin-3-yl)phenyl)aniline], the inhibition at 0.05 µM was more than 60% and the inhibition at 1 µM was more than 60%. Also, under “compound 100 nM”, the inhibition at 0.1 µM was more than 60%.
On to `c1cnc(-c2ccc(Nc3cccc(-c4nc5ccccc5[nH]4)c3)cc2)nc1` [Example 26, N-[3-(1H-benzo[d]imidazol-2-yl)phenyl]-4-(pyrimidin-2-yl)aniline], for which the inhibition at 0.05 µM was more than 60% and the inhibition at 1 µM is more than 60%. For the setting “compound 100 nM”, this compound gave an inhibition at 0.1 µM of more than 60%.
Regarding `FC(F)(F)c1ccc2nc(-c3cccc(Nc4ccc(-c5ncccn5)cc4)c3)[nH]c2c1` [Example 27, N-[4-(pyrimidin-2-yl)phenyl]-3-[6-(trifluoromethyl)-1H-benzo[d]imidazol-2-yl]aniline], the inhibition at 0.05 µM is more than 60% and the inhibition at 1 µM was more than 60%. For the same compound, the inhibition at 0.1 µM (compound 100 nM) is more than 60%.
Take `FC(F)(F)c1ccc2nc(-c3cccc(Nc4ccc(-c5cncnc5)cc4)c3)[nH]c2c1` [Example 28, N-[4-(pyrimidin-5-yl)phenyl]-3-[6-(trifluoromethyl)-1H-benzo[d]imidazol-2-yl]aniline]: the inhibition at 0.05 µM was more than 60%. This compound returned an inhibition at 0.1 µM (compound 100 nM) of more than 60%.
Take `FC(F)(F)c1ccc2nc(-c3cccc(Nc4ccc(-c5cnccn5)cc4)c3)[nH]c2c1` [Example 29, N-[4-(pyrazin-2-yl)phenyl]-3-[6-(trifluoromethyl)-1H-benzo[d]imidazol-2-yl]aniline]: the inhibition at 0.05 µM was more than 60%. Also, the inhibition at 0.1 µM (compound 100 nM) is more than 60%.
In the case of `c1cc(Nc2ccc(-c3cncnc3)cc2)cc(-c2nc3ccccc3[nH]2)c1` [Example 30, 3-(1H-benzo[d]imidazol-2-yl)-N-(4-(pyrimidin-5-yl)phenyl)aniline], the inhibition at 0.05 µM lay within 30 to 60%. The inhibition at 0.1 µM (compound 100 nM) is 30 to 60%.
As for `c1cncc(-c2ccc(Nc3cccc(-c4nc5ccccc5[nH]4)c3)cc2)c1` [Example 31, N-[3-(1H-benzo[d]imidazol-2-yl)phenyl]-4-(pyridin-3-yl)aniline], the inhibition at 0.05 µM lay in the range of 30 to 60%. The same compound showed an inhibition at 0.1 µM (compound 100 nM) of more than 60%.
With `c1cc(Nc2ccc(-c3cnccn3)cc2)cc(-c2nc3ccccc3[nH]2)c1` [Example 32, 3-(1H-benzo[d]imidazol-2-yl)-N-(4-(pyrazin-2-yl)phenyl)aniline], the inhibition at 0.05 µM lay in the range of 30 to 60%. The same compound gave an inhibition at 0.1 µM (compound 100 nM) of 30 to 60%.
For `c1cc(Nc2ccc(-c3ccncc3)cc2)cc(-c2nc3ccccc3[nH]2)c1` [Example 33, N-[3-(1H-benzo[d]imidazol-2-yl)phenyl]-4-(pyridin-4-yl)aniline], the inhibition at 0.05 µM is 30 to 60%. The compound also had an inhibition at 0.1 µM (compound 100 nM) of 30 to 60%.
For `Cc1cscc1-c1cnc(Nc2cccc(-c3nc4ccccc4[nH]3)c2)nc1` [Example 43, N-(3-(1H-benzo[d]imidazol-2-yl)phenyl)-5-(4-methylthiophen-3-yl)pyrimidin-2-amine], the inhibition at 0.05 µM was more than 60%. Under “compound 100 nM”, this compound displayed an inhibition at 0.1 µM of more than 60%.
In the case of `c1ccc(-c2cnc(Nc3cccc(-c4nc5ccccc5[nH]4)c3)nc2)nc1` [Example 44, N-(3-(1H-benzo[d]imidazol-2-yl)phenyl)-5-(pyridin-2-yl)pyrimidin-2-amine], the inhibition at 0.05 µM is more than 60%. This compound also had an inhibition at 0.1 µM (compound 100 nM) of more than 60%.
`Fc1ccc2nc(-c3cccc(Nc4ncc(-c5ccccn5)cn4)c3)[nH]c2c1` [Example 45, N-[3-(6-fluoro-1H-benzo[d]imidazol-2-yl)phenyl]-5-(pyridin-2-yl)pyrimidin-2-amine]: the inhibition at 0.05 µM is more than 60%. For the setting “compound 100 nM”, this compound registered an inhibition at 0.1 µM of more than 60%.
On to `Fc1ccc2nc(-c3cccc(Nc4ncc(-c5cccnn5)cn4)c3)[nH]c2c1` [Example 51, N-(3-(6-fluoro-1H-benzo[d]imidazol-2-yl)phenyl)-5-(pyridazin-3-yl)pyrimidin-2-amine], for which the “% Inhibition 50 nM” value is listed as “B (30 to 60% inhibition)”. Besides, under “compound 100 nM”, the inhibition at 0.1 µM is more than 60%.
In the case of `FC(F)(F)c1ccc2nc(-c3cccc(Nc4ncc(-c5cccnn5)cn4)c3)[nH]c2c1` [Example 52, 5-(pyridazin-3-yl)-N-(3-(6-(trifluoromethyl)-1H-benzo[d]imidazol-2-yl)phenyl)pyrimidin-2-amine], the inhibition at 0.05 µM is more than 60%. The compound also showed an inhibition at 0.1 µM (compound 100 nM) of more than 60%.
Consider `c1cc(Nc2ncc(-c3cccnn3)cn2)cc(-c2nc3ccccc3[nH]2)c1` [Example 53, N-[3-(1H-benzo[d]imidazol-2-yl)phenyl]-5-(pyridazin-3-yl)pyrimidin-2-amine], for which the inhibition at 0.05 µM was 30 to 60%. This compound also showed an inhibition at 0.1 µM (compound 100 nM) of 30 to 60%.
On to `Fc1ccc2nc(-c3cccc(Nc4ncc(-c5cccnn5)cn4)c3)[nH]c2c1` [Example 55, N-(3-(6-fluoro-1H-benzo[d]imidazol-2-yl)phenyl)-5-(pyridazin-3-yl)pyrimidin-2-amine], for which the “% Inhibition 50 nM” value is listed as “A (> 60% inhibition)”. Besides, the “% Inhibition 100 nM” value (compound 100 nM) was “A (> 60% inhibition)”.
For the compound `c1cc(Nc2ccc(-c3cccnn3)cn2)cc(-c2nc3ccccc3[nH]2)c1` [Example 56, N-[3-(1H-benzo[d]imidazol-2-yl)phenyl]-5-(pyridazin-3-yl)pyridin-2-amine], the inhibition at 0.05 µM lay in the range of 30 to 60%. Further, where the note is “compound 100 nM”, the inhibition at 0.1 µM was more than 60%.
`FC(F)(F)c1ccc2nc(-c3cccc(Nc4ccc(-c5ccccn5)cn4)c3)[nH]c2c1` [Example 57, N-{3-[6-(trifluoromethyl)-1H-benzo[d]imidazol-2-yl]phenyl}-[2,3'-bipyridin]-6'-amine]: the inhibition at 0.05 µM was more than 60%. This compound came in with an inhibition at 0.1 µM (compound 100 nM) of more than 60%.
As to `Fc1ccc2nc(-c3cccc(Nc4ccc(-c5ccccn5)cn4)c3)[nH]c2c1` [Example 58, N-(3-(6-fluoro-1H-benzo[d]imidazol-2-yl)phenyl)-[2,3'-bipyridine]-6'-amine], the inhibition at 0.05 µM was more than 60%. Besides, the inhibition at 0.1 µM (compound 100 nM) was more than 60%.
For `c1ccc(-c2ccc(Nc3cccc(-c4nc5ccccc5[nH]4)c3)nc2)nc1` [Example 59, N-[3-(1H-benzo[d]imidazol-2-yl)phenyl]-[2,3'-bipyridin]-6'-amine], the inhibition at 0.05 µM was more than 60%. Moreover, under “compound 100 nM”, the inhibition at 0.1 µM is more than 60%.

(Values after patent EP4559908A1, “HETEROARYL DERIVATIVE COMPOUND AND USE THEREOF” (S2CBio Inc., priority 2022, dated 2024).)
